# In patent publication US20230088528A1, “USE OF LIPID IN PREPARATION OF NUCLEIC ACID DELIVERY REAGENT AND RELATED PRODUCT THEREOF” (INSTITUTE OF BASIC MEDICAL SCIENCES CHINESE ACADEMY OF …, priority 2019, published 2023):
# Assays:
# [1] = Pharmacokinetic study of lipid-nucleic acid mixture, tail vein injection group, relative amount of PGY-sRNA-26 delivered to organs over time; format: in vivo, C57BL/6 male mice; details: injection via the tail vein; sampled at 3, 6, 9, 12, 24 hrs
# Experimental: (§1) 1 nmol of small RNA (as shown in Table 2) was dissolved in 400 μl of DEPC-treated water in a glass tube, and 10 μl of a corresponding lipid stock solution was added, to give a system containing 100 μg of lipid. The system was well mixed, heated for 15 min in a water bath at 90° C., and then naturally cooled, to obtain a lipid-nucleic acid mixture of the lipid and small RNA.
# (§2) The C57BL/6 male mice used in the experiment were purchased from Beijing Vital River Laboratory Animal Technology Co., Ltd., about 6 weeks old, and weighed 20-24 g. They were kept in an SPF animal room of the Animal Center of the Institute of Basic Medical Sciences, Chinese Academy of Medical Sciences. The mice were fasted for 12 hrs before gavage.
# (§3) The lipid-nucleic acid mixture was prepared following the method as described in Example 2. The prepared lipid-nucleic acid mixture was orally administered or injected via the tail vein at a dose of 100 μg lipid:1 nmol single-stranded small RNA PGY-sRNA-26 per mouse. The oral dose was half that of the tail vein injection.
# (§4) 1) Blank group: Mice (n=6) were given 500 μl of normal saline by gavage, and this group served as a blank control group;
# 3) Intravenous injection group: Mice (n=15) were given 100 μl of the lipid-nucleic acid mixture prepared in step 2 by injection via the tail vein.
# (§5) At 3 hrs, 6 hrs, 9 hrs, 12 hrs and 24 hrs after administration in the gavage group and the intravenous injection group, 3 mice were taken and the RNA was extracted from each organ according to the method in Example 3.
# (§6) The RNA extracted from each organ was reverse transcribed into cDNA according to the method in Example 3.
# (§7) A quantitative PCR amplification reaction was performed according to the method in Example 3.
# (§8) 3.5. The Relative Expression Level was Calculated by the 2-ΔCt Method.
# (§9) FIGS. 46-49 respectively show the results of delivering single-stranded small RNA PGY-sRNA-26 into different target tissues at various time points by gavage using lipids 93, 94, 96, and 100. FIGS. 50-54 respectively show the results of delivering single-stranded small RNA PGY-sRNA-26 into different target tissues at various time points by injection via the tail vein using lipids 94, 96, 98, 100, and 101.
# [2] = Pharmacokinetic study of lipid-nucleic acid mixture, gavage group, relative amount of PGY-sRNA-26 delivered to organs over time; format: in vivo, C57BL/6 male mice; details: sampled at 3, 6, 9, 12, 24 hrs
# Experimental: as §1, §2, §3, §4
# 2) Gavage group: Mice (n=15) were given 200 μl of the lipid-nucleic acid mixture prepared in step 2 by gavage.
# as §5, §6, §7, §8, §9
# [3] = In vivo delivery of lipid-nucleic acid mixture (PGY-sRNA-26) by gavage, relative intake in blood and tissues by RT-qPCR; set-up: species or system C57BL/6 male mice; details: for number of organs into which nucleic acid is significantly delivered: among the 6 organs in the experiments
# Experimental: The concentration of a lipid solution in chloroform was 10 mg/ml (stock solution), and grouping was performed according to the lipid compound number.
# as §1, §2
# The lipid-nucleic acid mixture was prepared following the method as described in Example 2. The prepared lipid-nucleic acid mixture was orally administered at a dose of 100 μg lipid:1 nmol single-stranded small RNA PGY-sRNA-26 per mouse.
# 1) Blank group: Mice (n=4) were given 500 μl of normal saline by gavage, and this group served as a blank control group;
# 2) Free intake group: Mice (n=4) were given sRNA solution (1 nmol/animal, 500 μl) by direct gavage, and this group served as a negative control group;
# 3) Lipid treatment group: Mice (n=4) were given 500 μl of the lipid-nucleic acid mixture prepared in step 2 by gavage.
# 12 hrs after gavage in each group of mice, 500 μl of blood was taken from the eyeball, and 1.5 ml of Trizol Reagent LS (purchased from Invitrogen) was added and mixed well for lysis. The tissue sample was added with 3 ml of Trizol Reagent LS. and homogenized for full lysis, wherein the tissue sample included lung/kidney/spleen/heart/gut. 1 ml of blood or tissue lysate was taken and RNA was extracted according to the following steps.
# The blood or tissue lysate was centrifuged at 4° C., and 12,000 rpm for 5 min, the pellet was discarded, and Trizol was transferred to a new centrifuge tube.
# Chloroform was added in an amount of 200 μL chloroform/mL Trizol, shaken fully until uniform, and allowed to stand at room temperature for 5 min.
# The sample was centrifuged at 4° C., and 12,000 rpm, for 15 min.
# The upper aqueous phase was pipetted to another centrifuge tube, and isopropanol was added in an amount of 0.4 mL isopropanol/mL Trizol, mixed well, and allowed to stand at a low temperature for 10-20 min.
# The sample was centrifuged at 4° C., and 12,000 rpm, for 15 min, the supernatant was discarded, and the RNA pellet was at the bottom of the tube.
# 1 mL of 75% ethanol was added, and the centrifuge tube was shaken gently, to suspend the pellet.
# The sample was centrifuged at 4° C., and 12,000 rpm, for 10 min, the supernatant was discarded, 1 mL of 75% ethanol was added, and the centrifuge tube was shaken gently, to suspend the pellet.
# The sample was centrifuged at 4° C., and 12,000 rpm, for 10 min, the supernatant was discarded, and the sample was air dried at room temperature. The RNA sample was dissolved in 50-100 μL of RNase-free H2O, and the RNA concentration was quantified by determining the OD value.
# The sRNA was reversely transcribed into cDNA using a reverse transcription kit (High-Capacity cDNA Reverse Transcription Kits, Applied Biosystems, cat. no. 4368813), following the stem-loop method (see, for example Real-time quantification of microRNAs by stem-loop RT-PCR, Nucleic Acids Res. 2005 Nov. 27; 33(20):e179, incorporated herein by reference). System for reverse transcription: template RNA (200 ng/μL) 10 μL, 10×RT buffer 2.0 μL, 25×dNTP Mix (100 mM) 0.8 μL, U6 RT stem-loop primer 2.0 μL, PGY-sRNA-26 RT stem-loop primer 2.0 μL, MultiScribe™ reverse transcriptase 1.0 μL, RNAase inhibitor 1.0 μL, and nuclease-free water H2O 1.2 μL. […]
# [4] = 100 μg lipid:1 nmol PGY-sRNA-26 per mouse, 12 hrs after gavage, vs free intake group
# [5] = significant difference compared to the control, 100 μg lipid:1 nmol PGY-sRNA-26, 12 hrs
compound,measurement,setting,value
1-palmitoyl-2-hydroxy-sn-glycero-3-phosphate (sodium salt) [Lipid 96],time at which amount of nucleic acid delivered into the brain tissue reaches a maximum value,[1],6 h
same,time at which amount of nucleic acid delivered into the heart tissue reaches a maximum value,[1],9 h
same,time at which amount of nucleic acid delivered into the intestinal tissue reaches a maximum value,[1],6 h
same,time at which amount of nucleic acid delivered into the kidney tissue reaches a maximum value,[1],3 h
same,time at which amount of nucleic acid delivered into the liver tissue reaches a maximum value,[1],3 h
same,time at which amount of nucleic acid delivered into the lung tissue reaches a maximum value,[1],6 h
same,time at which amount of nucleic acid delivered into the intestinal tissue reaches a maximum value,[2],3 h
same,time at which amount of nucleic acid delivered into the kidney tissue reaches a maximum value,[2],3 h
same,"oral delivery of sRNA single-chain nucleic acid into the blood, and lung, kidney, spleen, heart, and intestinal tissue of mice",[3]; [4],can effectively orally deliver
same,number of organs into which nucleic acid is significantly delivered,[3],two organs
same,oral delivery of sRNA single-stranded nucleic acid into the kidney tissue of mice,[3]; [5],can significantly efficiently orally deliver
same,oral delivery of sRNA single-stranded nucleic acid into the spleen tissue of mice,[3]; [5],can significantly efficiently orally deliver
1-O-octadecyl-2-hydroxy-sn-glycero-3-phosphocholine [Lipid 94],time at which amount of nucleic acid delivered into the brain tissue reaches a maximum value,[1],6 h
same,time at which amount of nucleic acid delivered into the gastric tissue reaches a maximum value,[1],3 h
same,time at which amount of nucleic acid delivered into the intestinal tissue reaches a maximum value,[1],6 h
same,time at which amount of nucleic acid delivered into the kidney tissue reaches a maximum value,[1],9 h
same,time at which amount of nucleic acid delivered into the spleen tissue reaches a maximum value,[1],6 h
same,time at which amount of nucleic acid delivered into the brain tissue reaches a maximum value,[2],3 h
same,time at which amount of nucleic acid delivered into the gastric tissue reaches a maximum value,[2],3 h
same,time at which amount of nucleic acid delivered into the heart tissue reaches a maximum value,[2],3 h
same,time at which amount of nucleic acid delivered into the intestinal tissue reaches a maximum value,[2],3 h
same,time at which amount of nucleic acid delivered into the kidney tissue reaches a maximum value,[2],9 h
same,time at which amount of nucleic acid delivered into the lung tissue reaches a maximum value,[2],9 h
same,time at which amount of nucleic acid delivered into the spleen tissue reaches a maximum value,[2],3 h
same,"oral delivery of sRNA single-chain nucleic acid into the blood, and lung, kidney, spleen, heart, and intestinal tissue of mice",[3]; [4],can effectively orally deliver
same,number of organs into which nucleic acid is significantly delivered,[3],two organs
same,oral delivery of sRNA single-stranded nucleic acid into the kidney tissue of mice,[3]; [5],can significantly efficiently orally deliver
same,oral delivery of sRNA single-stranded nucleic acid into the lung tissue of mice,[3]; [5],can significantly efficiently orally deliver
"CCCCCCCC/C=C\CCCCCCCC(=O)O[C@H](COC(=O)CCCCCCCCCCCCCCCCC)COP(=O)([O-])OCC[N+](C)(C)C [Lipid 87, 1-stearoyl-2-oleoyl-sn-glycero-3-phosphocholine]","oral delivery of sRNA single-chain nucleic acid into the blood, and lung, kidney, spleen, heart, and intestinal tissue of mice",[3]; [4],can effectively orally deliver
"CCCCCCCCC=CCCCCCCCC(=O)OCC(COC(=O)CCCCCCCCCCCCCCCCCCCCC)OC(=O)CCCCCCCC=CCCCCCCCC (stereo not drawn) [Lipid 79, 1,2-olein-3-behenin]","oral delivery of sRNA single-chain nucleic acid into the blood, and lung, kidney, spleen, and heart tissues of mice",[3]; [4],can effectively orally deliver
same,oral delivery of sRNA single-stranded nucleic acid into the spleen tissue of mice,[3]; [5],can significantly efficiently orally deliver
"CCCCCCCCCCC/C=C/[C@@H](O)[C@@H](N)CO [Lipid 100, D-erythro-sphingosine (C16 group)]","oral delivery of sRNA single-chain nucleic acid into the blood, and lung, kidney, spleen, heart, and intestinal tissue of mice",[3]; [4],can effectively orally deliver
same,oral delivery of sRNA single-stranded nucleic acid into the spleen tissue of mice,[3]; [5],can significantly efficiently orally deliver
"CCCCCCCC/C=C\CCCCCCCC(=O)O[C@H](COC(=O)CCCCCCCCCCCCCCC)COP(=O)([O-])OCC[N+](C)(C)C [Lipid 118, 1-palmitoyl-2-oleoyl-sn-glycero-3-phosphatidylcholine]","oral delivery of sRNA single-chain nucleic acid into the blood, and lung, kidney, spleen, heart, and intestinal tissue of mice",[3]; [4],can effectively orally deliver
"CCCCCCCCCCCCCCCCOC[C@H](COP(=O)([O-])OCC[N+](C)(C)C)OC(C)=O [Lipid 84, β-acetyl-γ-O-hexadecyl-L-α-phosphatidylcholine hydrate]","oral delivery of sRNA single-chain nucleic acid into the blood, and lung, kidney, spleen, heart, and intestinal tissue of mice",[3]; [4],can effectively orally deliver
"CCCCCCCCCCCCCCCCOC[C@H](COP(=O)([O-])OCC[N+](C)(C)C)OC(C)=O [Lipid 85, β-acetyl-γ-O-alkyl-L-α-phosphatidylcholine]","oral delivery of sRNA single-chain nucleic acid into the blood, and lung, kidney, spleen, heart, and intestinal tissue of mice",[3]; [4],can effectively orally deliver
"CCCCCCCCCCCCCCCC(=O)OC[C@@H](O)COP(=O)([O-])OCC[N+](C)(C)C [Lipid 113, 1-palmitoyl-2-hydroxy-sn-glycerol-3-phosphatidylcholine]","oral delivery of sRNA single-chain nucleic acid into the blood, and lung, kidney, spleen, heart, and intestinal tissue of mice",[3]; [4],can effectively orally deliver
"CCCCCCCC/C=C\CCCCCCCCCCCCCC(=O)N[C@@H](CO)[C@H](O)/C=C/CCCCCCCCCCCCC [Lipid 91, N-nervonoyl-D-erythro-sphingosine]","oral delivery of sRNA single-chain nucleic acid into the blood, and lung, kidney, spleen, heart, and intestinal tissue of mice",[3]; [4],can effectively orally deliver
same,oral delivery of sRNA single-stranded nucleic acid into the kidney tissue of mice,[3]; [5],can significantly efficiently orally deliver
